Measurements taken from patent US7612087B2, “Heterocyclic compounds as inhibitors of beta-lactamases” (Novexel, priority 2002, dated 2009).
Where two headings read alike, the source gives them in different places.

Assays:
β-lactamase P99 = target: T1, β-lactamase P99 (Enterobacter cloacae, UniProt P05364); test: biochemical
T1 construct: The β-lactamases are isolated from bacterial strains which are resistant to penicillins and cephalosporins; endogenous in cells; host or cells: Enterobacter cloacae 293HT6 (natural producer; French-press lysate, 100,000 g supernatant)
T1 sequence (P05364 21-381): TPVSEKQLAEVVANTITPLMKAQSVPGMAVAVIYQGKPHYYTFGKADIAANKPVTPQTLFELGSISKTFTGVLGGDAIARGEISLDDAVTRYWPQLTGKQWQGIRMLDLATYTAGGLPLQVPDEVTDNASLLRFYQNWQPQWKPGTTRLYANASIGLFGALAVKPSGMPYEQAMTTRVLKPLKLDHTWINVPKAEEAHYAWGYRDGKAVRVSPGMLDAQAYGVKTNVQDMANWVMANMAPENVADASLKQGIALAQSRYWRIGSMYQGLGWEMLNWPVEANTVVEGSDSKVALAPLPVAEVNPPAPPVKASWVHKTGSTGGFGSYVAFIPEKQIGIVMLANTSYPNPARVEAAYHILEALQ
Experimental: (§1) A. Preparation of the β-lactamases Tem-1 and P99
(§2) The β-lactamases are isolated from bacterial strains which are resistant to penicillins and cephalosporins (Tem1 and P99 are produced by E.coli 250HT21 and E.Cloacae 293HT6 respectively).
(§3) The bacteria are cultured at 37° C. in heart-brain culture at 37 g/l (DIFCO). They are harvested at the end of the exponential phase, cooled down and centrifuged. The bacterial pellets are taken up in sodium phosphate buffer 50 mM, pH 7.0 and centrifuged again. The bacteria are taken up in two volumes of the same buffer and lyzed using a French-Press maintained at 4° C. After centrifugation for 1 hour at 100,000 g, at 4° C., the supernatants containing the soluble fraction of the bacterial extracts are recovered and frozen at −80° C.
(§4) The method uses Nitrocefin (OXOID), cephalosporin chromogene as substrate, of which the product hydrolyzed by the B-lactamases is red and absorbs at 485 nm. Beta-lactamase activity is determined kinetically by measurement of the absorbance variation at 485 nm resulting from the hydrolysis of the substrate using a plate spectrophotometer (Spectra Max More Molecular Devices). The experiments are carried out at 37° C. The quantity of enzyme was normalized and the measurements are carried out at initial speed.
(§5) Two measurements were carried out, without preincubation and with preincubation of the enzyme and inhibitor (5 mn), in order to test the irreversibility of the reaction. The products are tested at 6 or 8 concentrations in duplicate. The reaction mixture contains 100 μM of Nitrocefin and 50 mM sodium phosphate buffer pH7.0.
(§6) The hydrolysis speeds are measured with and without inhibitor. The concentration of inhibitor which inhibits by 50% the hydrolysis reaction of Nitrocefin by the enzyme (CI50) is determined. The data is processed using GraFit software (Erathycus Software).

E. coli 250CF1 (Tem3) = test: microbe, parasite or virus in culture; assay type: cell-based; settings: compound at 5 mg/l, 24 hours at 37° C.; for MIC of Cefotaxime in combination with the compound: Trial 4, 250CF1 E. coli Tem3; for MIC of Piperacillin in combination with the compound: Trial 4, 250CF1 Tem3
Experimental: (§7) The operation is carried out as follows, using the so-called micro-dilution in liquid medium method.
(§8) A series of concentrations of the β-lactamine is prepared in the presence of a constant concentration (5 mg/l) of the product to be studied, each is then seeded with various bacterial strains.
(§9) After incubation for 24 hours in a heating chamber at 37° C., the growth inhibition is evaluated by the absence of any bacterial development, which allows the minimal inhibitory concentrations (MIC) for each strain to be determined, expressed in milligrams/l.

[1] = test system: E. cloacae 293HT6 (Class C); test: MIC, micro-dilution in liquid medium, β-lactamine with product at 5 mg/l; assay type: cell-based; settings: compound at 5 mg/l, 24 hours at 37° C.; for MIC of Piperacillin in combination with the compound: Trial 9, 293HT6 Class; for MIC of Cefotaxime in combination with the compound: Trial 9, 293HT6 E. cloacae Class C
Experimental: as §7, §8, §9

E. coli 250BE1 (SHV4) = test: as above; assay type: cell-based; settings: compound at 5 mg/l, 24 hours at 37° C.; for MIC of Cefotaxime in combination with the compound: Trial 7, 250BE1 E. coli SHV4; for MIC of Piperacillin in combination with the compound: Trial 7, 250BE1 SHV4
Experimental: as §7, §8, §9

E. coli 250HT21 (Tem1) = test: as above; assay type: cell-based; settings: compound at 5 mg/l, 24 hours at 37° C.; for MIC of Cefotaxime in combination with the compound: Trial 2, 250HT21 E. coli Tem1; for MIC of Piperacillin in combination with the compound: Trial 2, 250HT21 Tem1
Experimental: as §7, §8, §9

E. coli 250HT22 (Tem2) = test: as above; assay type: cell-based; settings: compound at 5 mg/l, 24 hours at 37° C.; for MIC of Cefotaxime in combination with the compound: Trial 3, 250HT22 E. coli Tem2; for MIC of Piperacillin in combination with the compound: Trial 3, 250HT22 Tem2
Experimental: as §7, §8, §9

[2] = test system: E. coli 250HT23 (Class D); test: as above; assay type: cell-based; settings: compound at 5 mg/l, 24 hours at 37° C.; for MIC of Piperacillin in combination with the compound: Trial 8, 250HT23 Class D; for MIC of Cefotaxime in combination with the compound: Trial 8, 250HT23 E. coli Class D
Experimental: as §7, §8, §9

E. coli 250HT26 (SHV1) = test: as above; assay type: cell-based; settings: compound at 5 mg/l, 24 hours at 37° C.; for MIC of Cefotaxime in combination with the compound: Trial 6, 250HT26 E. coli SHV1; for MIC of Piperacillin in combination with the compound: Trial 6, 250HT26 SHV1
Experimental: as §7, §8, §9

E. coli 250SJ1 (Tem7) = test: as above; assay type: cell-based; settings: compound at 5 mg/l, 24 hours at 37° C.; for MIC of Cefotaxime in combination with the compound: Trial 5, 250SJ1 E. coli Tem7; for MIC of Piperacillin in combination with the compound: Trial 5, 250SJ1 Tem7
Experimental: as §7, §8, §9

[3] = test system: P. aeruginosa 391HT7 (PSE); test: as above; assay type: cell-based; settings: compound at 5 mg/l, 24 hours at 37° C.; for MIC of Cefotaxime in combination with the compound: Trial 11, 391HT7 P. aeruginosa PSE; for MIC of Piperacillin in combination with the compound: Trial 11, 391HT7 PSE
Experimental: as §7, §8, §9

[4] = test system: P. aeruginosa 391HT8 (PSE); test: as above; assay type: cell-based; settings: compound at 5 mg/l, 24 hours at 37° C.; for MIC of Cefotaxime in combination with the compound: Trial 12, 391HT8 P. aeruginosa PSE; for MIC of Piperacillin in combination with the compound: Trial 12, 391HT8 PSE
Experimental: as §7, §8, §9

[5] = test system: S. aureus 011GO66 (PeniR); test: as above; assay type: cell-based; settings: compound at 5 mg/l, 24 hours at 37° C.; for MIC of Cefotaxime in combination with the compound: Trial 1, 011GO66 S. aureus PeniR; for MIC of Piperacillin in combination with the compound: Trial 1, 011GO66 peniR
Experimental: as §7, §8, §9

Serratia 301HT6 = test: as above; assay type: cell-based; settings: compound at 5 mg/l; Trial 10, 301HT6 Serratia; 24 hours at 37° C.
Experimental: as §7, §8, §9

β-lactamase TEM1 = target: T2, β-lactamase TEM1 (Escherichia coli, UniProt P62593); test: Inhibition of isolated β-lactamase Tem-1 (Nitrocefin hydrolysis); assay type: biochemical, E.coli 250HT21; settings: 100 μM Nitrocefin, 50 mM sodium phosphate buffer pH7.0, 37° C.
T2 construct: The β-lactamases are isolated from bacterial strains which are resistant to penicillins and cephalosporins; endogenous in cells; host or cells: E. coli 250HT21 (natural producer; French-press lysate, 100,000 g supernatant)
T2 sequence (P62593 24-286 limits assumed): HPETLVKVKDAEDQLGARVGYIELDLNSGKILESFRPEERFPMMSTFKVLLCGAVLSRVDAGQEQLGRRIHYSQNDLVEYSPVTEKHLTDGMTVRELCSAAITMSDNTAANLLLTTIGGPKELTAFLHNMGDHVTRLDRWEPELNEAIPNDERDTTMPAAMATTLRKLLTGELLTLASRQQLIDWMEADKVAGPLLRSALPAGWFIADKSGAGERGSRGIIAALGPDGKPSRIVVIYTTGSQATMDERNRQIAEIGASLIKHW
Experimental: as §1, §2, §3, §4, §5, §6

[6] = 100 μM Nitrocefin, 50 mM sodium phosphate buffer pH7.0, 37° C., read-out: IC50 nM/P99

SMILES | MIC of Cefotaxime in combination with the compound (E. coli 250CF1 (Tem3)) | MIC of Piperacillin in combination with the compound (E. coli 250CF1 (Tem3)) [µg/mL] | MIC of Piperacillin in combination with the compound [1] [µg/mL] | MIC of Cefotaxime in combination with the compound [1] | MIC of Cefotaxime in combination with the compound (E. coli 250BE1 (SHV4)) | MIC of Piperacillin in combination with the compound (E. coli 250BE1 (SHV4)) [µg/mL] | MIC of Cefotaxime in combination with the compound (E. coli 250HT21 (Tem1)) | MIC of Piperacillin in combination with the compound (E. coli 250HT21 (Tem1)) [µg/mL] | MIC of Cefotaxime in combination with the compound (E. coli 250HT22 (Tem2)) | MIC of Piperacillin in combination with the compound (E. coli 250HT22 (Tem2)) [µg/mL] | MIC of Piperacillin in combination with the compound [2] [µg/mL] | MIC of Cefotaxime in combination with the compound [2] | MIC of Cefotaxime in combination with the compound (E. coli 250HT26 (SHV1)) | MIC of Piperacillin in combination with the compound (E. coli 250HT26 (SHV1)) [µg/mL] | MIC of Cefotaxime in combination with the compound (E. coli 250SJ1 (Tem7)) | MIC of Piperacillin in combination with the compound (E. coli 250SJ1 (Tem7)) [µg/mL] | MIC of Cefotaxime in combination with the compound [3] [µg/mL] | MIC of Piperacillin in combination with the compound [3] [µg/mL] | MIC of Cefotaxime in combination with the compound [4] [µg/mL] | MIC of Piperacillin in combination with the compound [4] [µg/mL] | further results
NC(=O)[C@@H]1CC[C@@H]2CN1C(=O)N2OS(=O)(=O)O (relative stereo) [Example 33, trans-7-oxo-6-(sulphooxy)-1,6-diazabicyclo[3.2.1]octane-2-carboxamide] | <=0.04 μg/ml | 1.2 | 0.6 | <=0.04 μg/ml | <=0.04 μg/ml | 1.2 | <=0.04 μg/ml | 0.3 | <=0.04 μg/ml | 0.6 | 2.5 | <=0.04 μg/ml | <=0.04 μg/ml | 1.2 | <=0.04 μg/ml | 0.6 | 20 | >40 | 20 | 10 | IC50 (β-lactamase P99): 330 nM; MIC of Cefotaxime in combination with the compound [5]: 2.5 µg/mL; MIC of Piperacillin in combination with the compound [5]: 1.2 µg/mL; MIC of Cefotaxime in combination with the compound (Serratia 301HT6): 0.08 µg/mL; MIC of Piperacillin in combination with the compound (Serratia 301HT6): 0.6 µg/mL
O=C(NCc1ccccc1)[C@H]1CC[C@@H]2CN1C(=O)N2OS(=O)(=O)[O-].[Na+] (relative stereo) [Example 34, sodium salt of trans-7-oxo-N-(phenylmethyl)-6-(sulphooxy)-1,6-diazabicyclo[3.2.1]octane-2-carboxamide] | 0.15 µg/mL | >40 | 10 | 0.6 µg/mL | 0.08 µg/mL | >40 | <=0.04 μg/ml | 5 | <=0.04 μg/ml | >40 | 40 | <=0.04 μg/ml | <=0.04 μg/ml | 20 | <=0.04 μg/ml | >40 | 20 | >40 | 20 | >40 | IC50 (β-lactamase TEM1): 27 nM; IC50 (β-lactamase P99; [6]): 32 nM; MIC of Cefotaxime in combination with the compound [5]: 1.2 µg/mL; MIC of Piperacillin in combination with the compound [5]: 0.6 µg/mL; MIC of Cefotaxime in combination with the compound (Serratia 301HT6): <=0.04 μg/ml; MIC of Piperacillin in combination with the compound (Serratia 301HT6): 1.2 µg/mL
O=C(NCc1ccccn1)[C@H]1CC[C@@H]2CN1C(=O)N2OS(=O)(=O)[O-].[Na+] (relative stereo) [Example 35, sodium salt of trans-7-oxo-N-(2-pyridinylmethyl)-6-(sulphooxy)-1,6-diazabicyclo[3.2.1]octane-2-carboxamide] | 0.15 µg/mL | 10 | 5 | 0.6 µg/mL | 0.08 µg/mL | 20 | <=0.04 μg/ml | 2.5 | <=0.04 μg/ml | 20 | 10 | <=0.04 μg/ml | <=0.04 μg/ml | 5 | <=0.04 μg/ml | 5 | 20 | >40 | 20 | >40 | IC50 (β-lactamase TEM1): 53 nM; IC50 (β-lactamase P99; [6]): 56 nM; MIC of Cefotaxime in combination with the compound [5]: 1.2 µg/mL; MIC of Piperacillin in combination with the compound [5]: 1.2 µg/mL; MIC of Cefotaxime in combination with the compound (Serratia 301HT6): <=0.04 μg/ml; MIC of Piperacillin in combination with the compound (Serratia 301HT6): 1.2 µg/mL
